Assay results: US20060115815A1 (priority 2002, published 2006)
Read-outs that look alike come from different tables or passages of the source.

Experiments:
46I50V [1] = test: microbe, parasite or virus in culture; format: cell-based, HIV-1
48V54V82A [2] = test: microbe, parasite or virus in culture; format: cell-based, HIV-1
30N82I88D [3] = test: microbe, parasite or virus in culture; format: cell-based, HIV-1
WT = test: microbe, parasite or virus in culture; format: cell-based, HIV-1
84V90M [4] = target: T1, 84V90M (Human immunodeficiency virus type 1 group M subtype B, UniProt P04585, I572V/L578M); test: cell-based; set-up: species or system HIV-1
[5] = target: recombinant HIV-1 protease (Human immunodeficiency virus type 1 group M subtype B, UniProt P04585); test: biochemical; format: biochemical; conditions: for Ki: read-out: Enzymatic assay Ki; for IC50: read-out: Enzymatic assay WT IC50/nM
84V90M [6] = target: T1, 84V90M; test: Enzymatic assay, IC50 against 84V90M mutant protease; format: biochemical, HIV-1
WT HIV-1 = test: microbe, parasite or virus in culture; format: cell-based
[7] = tested on: mutant HIV-1 with I84V/L90M mutations in the protease gene; format: cell-based; conditions: MT-4, 84V90M; read-out: Cell-based assay (MT-4) EC50/nM 84V90M
[8] = tested on: recombinant HIV-1 strains with resistance mutations in the protease gene; test: Cross-resistance profile assay, whole panel of mutant viruses; format: cell-based; conditions: {}
[9] = beagle, dog, in vivo, po
84V90M [10] = target: T1, 84V90M; test: biochemical; set-up: species or system HIV-1
30N82I88D [11] = tested on: 30N82I88D; set-up: species or system HIV-1; conditions: MT-4, 30N82I88D; read-out: Cell-based assay (MT-4) EC50/nM 30N82I88D
48V54V82S = tested on: 48V54V82S; set-up: species or system HIV-1; conditions: MT-4, 48V54V82S; read-out: Cell-based assay (MT-4) EC50/nM 48V54V82S
48V54V82A [12] = tested on: 48V54V82A; set-up: species or system HIV-1; conditions: MT-4, 48V54V82A; read-out: Cell-based assay (MT-4) EC50/nM 48V54V82A
46I50V [13] = tested on: 46I50V; set-up: species or system HIV-1; conditions: MT-4, 46I50V; read-out: Cell-based assay (MT-4) EC50/nM 46I50V
[14] = Human immunodeficiency virus 1, read-out: Cell-based assay (MT-4) EC50 46I50V
[15] = Human immunodeficiency virus 1, read-out: Cell-based assay (MT-4) EC50 48V54V82A
[16] = Human immunodeficiency virus 1, read-out: Cell-based assay (MT-4) EC50 30N82I88D
[17] = Human immunodeficiency virus 1, read-out: Cell-based assay (MT-4) EC50 WT
[18] = MT-4, 30N82I88D, read-out: Cell-based assay (MT-4) EC50 30N82I88D
[19] = MT-4, WT, read-out: Cell-based assay (MT-4) EC50/nM WT
[20] = Human immunodeficiency virus 1, read-out: EC50 [nM] WT HIV-1
[21] = 84V90M enzyme, read-out: Enzymatic assay 84V90M IC50

CCOP(=O)(COc1cccc(CN2C(=O)N(Cc3ccc4[nH]nc(N)c4c3)C(Cc3ccccc3)C(O)C(O)C2Cc2ccccc2)c1)OCC (stereo not drawn)
EC50 (46I50V [1]; [14]): 857 nM | EC50 (48V54V82A [2]; [15]): 513 nM | EC50 (30N82I88D [3]; [16]): 93 nM | EC50 (WT; [17]): 665 nM | EC50 (84V90M [4]): 3010 nM

CCOP(=O)(COc1ccc(CC2C(O)C(O)C(Cc3ccc(O)cc3)N(Cc3ccc(O)cc3)C(=O)N2Cc2ccc(O)cc2)cc1)OCC (stereo not drawn) [OH, Ph-pOH, OCH2PO3Et2]
EC50 (46I50V [1]; MT-4, 46I50V, read-out: Cell-based assay (MT-4) EC50 46I50V): 1110 nM | EC50 (48V54V82A [2]; MT-4, 48V54V82A, read-out: Cell-based assay (MT-4) EC50 48V54V82A): 986 nM | EC50 (30N82I88D [3]; [18]): 211 nM | EC50 (WT; read-out: Cell-based assay (MT-4) EC50 WT): 285 nM

COc1ccc(CN2C(=O)N(Cc3ccc(O)cc3)[C@H](Cc3ccccc3)[C@H](O)[C@@H](O)[C@H]2Cc2ccccc2)cc1C#N
Ki [5]: > 5 nM | IC50 [5]: 130 nM | IC50 (84V90M [6]): 348 nM | EC50 (WT HIV-1; [19]): 2010 nM | EC50 [7]: 3120 nM

CC(C)CN(C[C@@H](O)[C@H](Cc1ccccc1)NC(=O)O[C@H]1CCOC1)S(=O)(=O)c1ccc(N)cc1 [Amprenavir]
EC50 (WT HIV-1; [20]): 20 nM | Total No. of Resistant Viruses [8]: 4 | AUC(2-24 hr) in PBMCs [9]: 102,000 nM · hr | t1/2 [9]: 1.7 h | t1/2 (hr) in PBMCs [9]: 1.7 h

Nc1n[nH]c2ccc(CN3C(=O)N(Cc4cccc(C(=O)O)c4)[C@H](Cc4ccccc4)[C@H](O)[C@@H](O)[C@H]3Cc3ccccc3)cc12
IC50 (84V90M [10]; [21]): 27 nM | EC50 (30N82I88D [3]; [18]): > 6000 nM | EC50 (84V90M [4]; MT-4, 84V90M, read-out: Cell-based assay (MT-4) EC50 84V90M): > 6000 nM

Nc1n[nH]c2ccc(CN3C(=O)N(Cc4cccc(OCP(=O)(OCc5ccccc5)OCc5ccccc5)c4)C(Cc4ccccc4)C(O)C(O)C3Cc3ccccc3)cc12 (stereo not drawn)
EC50 (46I50V [1]; [14]): 3120 nM | EC50 (48V54V82A [2]; [15]): 2600 nM | EC50 (30N82I88D [3]; [16]): 705 nM | EC50 (WT; [17]): 898 nM | EC50 (84V90M [4]): > 6000 nM

CCOP(=O)(CCCNC(=O)c1cccc(CN2C(=O)N(Cc3cccc(N)c3)C(Cc3ccccc3)C(O)C(O)C2Cc2ccccc2)c1)OCC (stereo not drawn)
EC50 (46I50V [1]; [14]): 195 nM | IC50 (84V90M [10]): 29 nM | EC50 (48V54V82A [2]; [15]): 233 nM | EC50 (30N82I88D [3]; [16]): 171 nM | EC50 (WT; [17]): 176 nM | EC50 (84V90M [4]): 824 nM

CCOP(=O)(COc1ccc(C[C@@H]2[C@H](O)[C@@H](O)[C@@H](Cc3ccccc3)N(Cc3cccc(N)c3)C(=O)N2Cc2cccc(N)c2)cc1)OCC [R=H, R1=Ph-mNH2, R2=OCh2PO3Et2]
EC50 (30N82I88D [11]): 16 nM | EC50 (48V54V82S): 146 nM | EC50 (WT HIV-1; [19]): 65 nM | EC50 [7]: 328 nM | EC50 (48V54V82A [12]): 168 nM | EC50 (46I50V [13]): 46 nM

N#Cc1cc(CN2C(=O)N(Cc3cccc(OCc4ccccc4)c3)[C@H](Cc3ccccc3)[C@H](O)[C@@H](O)[C@H]2Cc2ccccc2)ccc1F
Ki [5]: 1.43 nM | IC50 [5]: 302 nM | IC50 (84V90M [6]): 114 nM | EC50 [7]: > 600 nM

O=C1N(Cc2ccccc2)[C@H](Cc2ccccc2)[C@H](O)[C@@H](O)[C@@H](Cc2ccc(OCP(=O)(OCc3ccccc3)OCc3ccccc3)cc2)N1Cc1ccccc1
EC50 (30N82I88D [11]): 3140 nM | EC50 (WT HIV-1; [19]): 1770 nM | EC50 [7]: > 6000 nM | EC50 (48V54V82A [12]): > 6000 nM

O=C1N(Cc2ccccc2)[C@H](Cc2ccccc2)[C@H](O)[C@@H](O)[C@@H](Cc2ccccc2)N1Cc1ccc2[nH]ncc2c1 [drawing 863, reference compound]
IC50 (84V90M [10]; [21]): 43.3 nM | EC50 (84V90M [4]): 2310 nM

CC(C)c1nc(CN(C)C(=O)N[C@H](C(=O)N[C@@H](Cc2ccccc2)C[C@H](O)[C@H](Cc2ccccc2)NC(=O)OCc2cncs2)C(C)C)cs1 [Ritonavir, reference compound]
EC50 (WT HIV-1; [20]): 15 nM | Total No. of Resistant Viruses [8]: 10

Nc1n[nH]c2ccc(CN3C(=O)N(CCCOCP(=O)(O)O)C(Cc4ccccc4)C(O)C(O)C3Cc3ccccc3)cc12 (stereo not drawn) [OCH2PO3H2]
IC50 (84V90M [10]): 137 nM | EC50 (WT; [17]): 1070 nM | EC50 (84V90M [4]): > 6000 nM
